Experimental data as given in patent US5187157A, “Peptide boronic acid inhibitors of trypsin-like proteases” (Du Pont Merck Pharmaceutical Company, priority 1988, dated 1993).

Assays:
[1] = tested on: normal human plasma; test: Prothrombin times (PT), blood coagulation in vitro; type: biochemical; details: for Calc. Concentration 2 × XPT: approximate concentration required to increase PT two fold
Protocol: (§1) The effectiveness of inhibitors in reactions in which they compete with natural substrates for target enzymes is measured in vitro in blood coagulation assays. Two different assays are used, the APTT (activated partial thromboplastin times) and PT (prothrombin times) assays. These assays mimic the blood clotting process in vivo. Blood coagulation occurs through either of two pathways, each consisting of a cascades of zymogen activation steps. The pathways are termed the intrinsic and the extrinsic pathways (see L. Lorand, Methods in Enzymology 45: 31-37 (1976). The intrinsic pathway is initiated by negatively charged surfaces in which plasma kallikrein, factor XII and factor […] are activated and then factors IX and X and prothrombin are activated in calcium dependent steps. Thrombin, the last protease in the cascade, hydrolyses fibrinogen to fibrin which results in clot formation. In the APTT assay, plasma components are activated by exposure to negatively charged surfaces and then clotting times are measured after calcium is added to the system. In the extrinsic pathway, tissue thromboplastin activates factor VII which then activates factor X leading to the activation of thrombin. These events are measured in the prothrombin times assay.
For PT assays, inhibitor solutions (0.100 mL) were incubated with normal human plasma (0.100 mL) for 2 min at 37°.

[2] = Stability of Inhibitors in Human Plasma As Measured By APTT; type: in vitro ADME; details: 250 nM in APTT assay
Protocol: The stability of inhibitors in plasma was determined by their ability to inhibit blood coagulation. First, a stock solutions (1.0 μM) of the inhibitors to be tested in 25 mM HEPES buffer, pH 7.5, containing 0.10 M sodium chloride were diluted 50% with normal human plasma. The mixtures were made at 0°, then aliquots (0.200 mL) were removed and incubated for 2 min at 37°. An equal volume of automated APTT reagent was added and clotting times were measured as described in Examples 111-117. The final concentration of inhibitor during the clotting assays was 250 nM. Values for compounds E and F were determined simultaneously with the Control. Values for compounds A, B and C were obtained on a different day.

[3] = molecular target: T1, Human thrombin (Homo sapiens, UniProt P00734); test: Inhibition of Thrombin (Esterase Activity); type: biochemical; details: for Percent Activity: activity remaining 10 to 20 min after initiation
T1 construct: purchased R.Q.P. Laboratories, South Bend, IN Lot HT102
Protocol: (§2) In the Examples which follow, the hydrolytic activity of each enzyme is measured in both the presence and absence of inhibitor and the percent enzyme activity determined. […] A steady state is reached fairly rapidly and nears completion within 5 min. Activity is evaluated between 10-20 min after the components are mixed to insure that reaction components are at equilibrium. The lowest concentration of inhibitor tested is determined by the estimated concentration of enzyme. […] The maintenance of pseudo-first-order reaction conditions and the sensitivity of the respective assays sets the lowest limit level of inhibitor tested at 10 nM for kallikrein inhibitors and 5 nM for thrombin inhibitors.
A stock solution of thrombin was prepared in 0.010M PIPES Buffer, pH 6.0, containing 0.75 M sodium chloride. […] The initial concentration of substrate was 0.10 mM and the concentration of thrombin was 1.0 nM (based on weight).

[4] = molecular target: T2, Human plasma kallikrein (Homo sapiens, UniProt P03952); test: Inhibition of Human Plasma Kallikrein; type: biochemical; details: activity remaining 10 to 20 min after initiation
T2 construct: purchased Protogen AG (Switzerland)
Protocol: as §2
Human plasma kallikrein was obtained from Protogen AG (Switzerland). The specific activity as described by the supplier is 15 units per mg. A unit is defined as the quantity of enzyme required to hydrolyze 1 μmole of substrate, H-(D)Pro-Phe-Arg-p-nitroanilide (Kabi S2302), per min at a substrate concentration of 0.50 mM at 25° in 50 mM potassium phosphate buffer, pH 8.0.

[5] = tested on: normal human plasma; test: Activated partial thromboplastin times (APTT), blood coagulation in vitro; type: biochemical; details: for Calc. Concentration 2 × APTT: approximate concentration required to increase APTT two fold
Protocol: as §1
The effect of protease inhibitors on blood coagulation in vitro was determined by measuring their effects on two different clinical parameters, the activated partial thromboplastin times (APTT) and prothrombin times (PT). Reagents for each of these assays were supplied by General Diagnostics, Jessup MD. Stock solutions of inhibitors were prepared in […] HEPES buffer, pH 7.5, containing 0.10 M sodium chloride. For the APTT assay, the inhibitor solution (0.100 mL) was incubated with normal human plasma (0.100 mL) and automated APTT reagent (0.100 mL). After incubation for 5.0 min at 37°, calcium chloride (0.100 mL) was added and the clotting times, measured in seconds, was determined on a fibrameter. The effects of the varying concentrations of inhibitor on blood clotting times compared with the clotting times of controls run in the absence of inhibitor, are shown in Table 3.

[6] = tested on: Sprague Dawley CD Rats; test: In Vivo Inhibition of Croton Oil Induced Inflammation (ear swelling); details: for Mean Swelling (mg ± SE): right minus left ear weight
Protocol: Two solutions were prepared, the first consisting of 5% croton oil, a known inflammatory agent, in an acetone carrier (Croton Solution) and the second consisting of 5% croton oil in an acetone carrier to which 10 mg/mL of a compound of the invention was added (Compound Solution). The Croton Solution (10 μL), or alternatively the Compound Solution (10 μL), was applied to the right ear of each animal (Sprague Dawley CD Rats, 130-140 g, supplied by Charles River Labs, Inc., Wilmington, MA). […] "SE" denotes standard error.

[7] = incubation in human plasma 0.5 h
[8] = incubation in human plasma 24 h
[9] = incubation in human plasma 48 h
[10] = 100 μg/ear with 5% croton oil, topical, 1 h
[11] = Table 13, 100 μg/ear with 5% croton oil, topical, 1 h
[12] = Table 14, dose=100 μg, essentially the same conditions

T2 sequence (P03952 391-638 limits assumed): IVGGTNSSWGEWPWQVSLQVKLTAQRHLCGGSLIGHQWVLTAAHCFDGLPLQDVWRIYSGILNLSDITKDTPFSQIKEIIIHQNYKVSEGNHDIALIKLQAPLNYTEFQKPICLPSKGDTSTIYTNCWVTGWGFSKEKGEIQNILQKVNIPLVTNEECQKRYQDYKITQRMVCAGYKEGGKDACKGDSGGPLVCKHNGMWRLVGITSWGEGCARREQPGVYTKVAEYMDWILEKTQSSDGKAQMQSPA
T2 sequence (P03952 20-390 partner limits assumed): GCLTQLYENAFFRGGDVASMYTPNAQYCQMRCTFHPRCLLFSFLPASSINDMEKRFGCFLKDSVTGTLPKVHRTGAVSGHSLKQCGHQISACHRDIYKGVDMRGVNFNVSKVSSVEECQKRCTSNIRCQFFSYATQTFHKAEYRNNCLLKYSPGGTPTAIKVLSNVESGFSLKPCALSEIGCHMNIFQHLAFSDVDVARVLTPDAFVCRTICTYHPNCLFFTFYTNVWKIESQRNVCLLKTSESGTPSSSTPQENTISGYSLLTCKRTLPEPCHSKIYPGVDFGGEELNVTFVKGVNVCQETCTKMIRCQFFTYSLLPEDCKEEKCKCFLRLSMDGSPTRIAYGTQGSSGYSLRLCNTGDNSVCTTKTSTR

Compound: CC(=O)NC(Cc1ccccc1)C(=O)NC(CCCNC(=N)N)B1OC2CC3CC(C3(C)C)C2(C)O1.Cl (stereo not shown) [Compound F, Ac-Phe-boroArg-C10 H16.HCl]
- Calc. Concentration 2 × XPT [1]: 2500 nM
- Prothrombin Times ([1]; inhibitor 1000 nM): 16.2 s
- Prothrombin Times ([1]; inhibitor 2000 nM): 20.8 s
- Prothrombin Times ([1]; inhibitor 4000 nM): 51.5 s
- Clotting Time ([2]; incubation in human plasma 0 h): 76.3 s
- Clotting Time [2, 7]: 76.4 s
- Clotting Time ([2]; incubation in human plasma 1 h): 76.7 s
- Clotting Time ([2]; incubation in human plasma 2 h): 79.6 s
- Clotting Time ([2]; incubation in human plasma 3 h): 77.8 s
- Clotting Time ([2]; incubation in human plasma 4 h): 81.8 s
- Clotting Time ([2]; incubation in human plasma 5 h): 80.8 s
- Clotting Time ([2]; incubation in human plasma 6 h): 79.3 s
- Clotting Time [2, 8]: 73.9 s
- Clotting Time [2, 9]: 49.3 s
- Percent Activity ([3]; inhibitor 1000 nM): 53%
- Percent Activity ([4]; inhibitor 10 nM): 48%
- Calc. Concentration 2 × APTT [5]: 325 nM
- Activated Partial Thromboplastin Times ([5]; inhibitor 50 nM): 35 s
- Activated Partial Thromboplastin Times ([5]; inhibitor 125 nM): 35.2 s
- Activated Partial Thromboplastin Times ([5]; inhibitor 200 nM): 36.7 s
- Activated Partial Thromboplastin Times ([5]; inhibitor 275 nM): 44.8 s
- Activated Partial Thromboplastin Times ([5]; inhibitor 350 nM): 58.2 s
- Activated Partial Thromboplastin Times ([5]; inhibitor 550 nM): 144.2 s
- Mean Right ear Wt. [6, 10]: 18.9 mg
- Mean Swelling (mg ± SE) [6, 10]: 2.3 ± 0.7 mg
- Percent Inhibition [6, 11]: 79%

Compound: Br.CC(=O)NC(Cc1ccccc1)C(=O)NC(CCCSC(=N)N)B1OC2CC3CC(C3(C)C)C2(C)O1 (stereo not shown) [G, Ac-Phe-boroIrg-C10 H16.HBr]
- Calc. Concentration 2 × XPT [1]: 1200 nM
- Prothrombin Times ([1]; inhibitor 500 nM): 13.7 s
- Prothrombin Times ([1]; inhibitor 750 nM): 14.9 s
- Prothrombin Times ([1]; inhibitor 1000 nM): 19.7 s
- Prothrombin Times ([1]; inhibitor 2000 nM): 43.6 s
- Percent Activity ([3]; inhibitor 1000 nM): 64%
- Percent Activity ([4]; inhibitor 50 nM): 17%
- Calc. Concentration 2 × APTT [5]: 625 nM
- Activated Partial Thromboplastin Times ([5]; inhibitor 50 nM): 35.2 s
- Activated Partial Thromboplastin Times ([5]; inhibitor 125 nM): 36.2 s
- Activated Partial Thromboplastin Times ([5]; inhibitor 200 nM): 39.3 s
- Activated Partial Thromboplastin Times ([5]; inhibitor 275 nM): 58.2 s
- Activated Partial Thromboplastin Times ([5]; inhibitor 350 nM): 66.7 s
- Activated Partial Thromboplastin Times ([5]; inhibitor 550 nM): 98.4 s
- Percent Inhibition [6, 12]: 69%

Compound: Ac-Ala-Lys(Boc)-boroArg-C10 H16.benzene sulfonic acid [Ac--Ala--Lys(Boc)--boroArg--C10 H16.BSA]
- Percent Activity ([3]; inhibitor 100 nM): 18%
- Percent Activity ([4]; inhibitor 10 nM): 34%

Compound: CC(C)(C)OC(=O)N[C@H](Cc1ccccc1)C(=O)N[C@@H](Cc1ccccc1)C(=O)N[C@@H](CCCNC(=N)N)B1OC2CC3CC(C3(C)C)C2(C)O1.O=S(=O)(O)c1ccccc1 (stereo partly drawn) [E, Boc-(D)Phe-Phe-boroArg-C10 H16.benzene sulfonic acid]
- Calc. Concentration 2 × XPT [1]: 2600 nM
- Prothrombin Times ([1]; inhibitor 500 nM): 19.8 s
- Prothrombin Times ([1]; inhibitor 750 nM): 22 s
- Prothrombin Times ([1]; inhibitor 1000 nM): 29.3 s
- Prothrombin Times ([1]; inhibitor 2000 nM): 39 s
- Prothrombin Times ([1]; inhibitor 4000 nM): 70.8 s
- Clotting Time ([2]; incubation in human plasma 0 h): 63.2 s
- Clotting Time [2, 7]: 73.2 s
- Clotting Time ([2]; incubation in human plasma 1 h): 66.2 s
- Clotting Time ([2]; incubation in human plasma 2 h): 67.7 s
- Clotting Time ([2]; incubation in human plasma 3 h): 61.7 s
- Clotting Time ([2]; incubation in human plasma 4 h): 58.2 s
- Clotting Time ([2]; incubation in human plasma 5 h): 61.3 s
- Clotting Time ([2]; incubation in human plasma 6 h): 57.3 s
- Clotting Time [2, 8]: 64.7 s
- Clotting Time [2, 9]: 58.7 s
- Percent Activity ([3]; inhibitor 10 nM): 32%
- Percent Activity ([4]; inhibitor 10 nM): 5.2%
- Calc. Concentration 2 × APTT [5]: 375 nM
- Activated Partial Thromboplastin Times ([5]; inhibitor 50 nM): 36.8 s
- Activated Partial Thromboplastin Times ([5]; inhibitor 125 nM): 40.5 s
- Activated Partial Thromboplastin Times ([5]; inhibitor 200 nM): 43.6 s
- Activated Partial Thromboplastin Times ([5]; inhibitor 275 nM): 52.8 s
- Activated Partial Thromboplastin Times ([5]; inhibitor 350 nM): 54.8 s
- Activated Partial Thromboplastin Times ([5]; inhibitor 550 nM): 61.3 s
- Percent Inhibition [6, 12]: 82%

Compound: CC1(C)C2CC3OB(C(CCCNC(=N)N)NC(=O)C(Cc4ccccc4)NC(=O)C4CCCN4C(=O)c4ccccc4)OC3(C)C1C2.O=S(=O)(O)c1ccccc1 (stereo not drawn) [Bz--Pro--Phe--boroArg--C10 H16.BSA, Bz-Pro-Phe-boroArg-C10 H16.benzene sulfonic acid]
- Percent Activity ([3]; inhibitor 1000 nM): 24%
- Percent Activity ([4]; inhibitor 10 nM): 15%

Compound: Bz-Pro-Phe-boroArg-F.hydrogen chloride [Bz--Pro--Phe--boroArg--F]
- Percent Activity ([3]; inhibitor 1000 nM): 18%
- Percent Activity ([4]; inhibitor 10 nM): 18%

Compound: COc1ccc2c(c1)c(CC(=O)O)c(C)n2C(=O)c1ccc(Cl)cc1 [Indomethacin, indomethacin, reference compound]
- Mean Right ear Wt. [6, 10]: 20.6 mg
- Mean Swelling (mg ± SE) [6, 10]: 5.0 ± 2.8 mg
- Percent Inhibition [6, 11]: 55%

Compound: Boc-Ala-Phe-(D,L)boroIrg-C6 H12.HBr [Boc--Ala--Phe--(D,L)boroIrg--C6 H12.HBr]
- Percent Activity ([3]; inhibitor 1000 nM): 28%
- Percent Activity ([4]; inhibitor 10 nM): 15%

Compound: CC1(C)C2CC3OB(C(CCCNC(=N)N)NC(=O)CNC(=O)C(CCC(=O)O)NC(=O)c4ccccc4)OC3(C)C1C2.O=S(=O)(O)c1ccccc1 (stereo not drawn) [Bz--Glu--Gly--boroArg--C10 H16.BSA, Bz-Glu-Gly-boroArg-C10 H16.benzene sulfonic acid]
- Percent Activity ([3]; inhibitor 100 nM): 46%
- Percent Activity ([4]; inhibitor 50 nM): 39%

Compound: Br.CC(C)(C)OC(=O)NC(Cc1ccccc1)C(=O)NC(Cc1ccccc1)C(=O)NC(CCCSC(=N)N)B1OC2CC3CC(C3(C)C)C2(C)O1 (stereo not drawn) [Compound D, Boc-(D)Phe-Phe-boroIrg-C10 H16.HBr]
- Calc. Concentration 2 × XPT [1]: 1200 nM
- Prothrombin Times ([1]; inhibitor 500 nM): 15.7 s
- Prothrombin Times ([1]; inhibitor 750 nM): 17.2 s
- Prothrombin Times ([1]; inhibitor 1000 nM): 19.9 s
- Prothrombin Times ([1]; inhibitor 2000 nM): 23.4 s
- Prothrombin Times ([1]; inhibitor 4000 nM): 49.2 s
- Percent Activity ([3]; inhibitor 5 nM): 48%
- Percent Activity ([4]; inhibitor 10 nM): 2%
- Calc. Concentration 2 × APTT [5]: 370 nM
- Activated Partial Thromboplastin Times ([5]; inhibitor 50 nM): 35.8 s
- Activated Partial Thromboplastin Times ([5]; inhibitor 125 nM): 45.2 s
- Activated Partial Thromboplastin Times ([5]; inhibitor 200 nM): 46.2 s
- Activated Partial Thromboplastin Times ([5]; inhibitor 275 nM): 60.7 s
- Activated Partial Thromboplastin Times ([5]; inhibitor 350 nM): 75.7 s
- Activated Partial Thromboplastin Times ([5]; inhibitor 550 nM): 94.8 s
- Percent Inhibition [6, 12]: 93%

Compound: CC(=O)NC(Cc1ccccc1)C(=O)N1CCCC1C(=O)NC(CCCNC(=N)N)B1OC2CC3CC(C3(C)C)C2(C)O1.Cl (stereo not drawn) [Ac--(D)Phe--Pro--boroArg--C10 H16.HCl, Ac-(D)Phe-Pro-boroArg-C10 H16.HCl]
- Ki (suggested by inhibitor concentration and percent inhibition) ([3]; estimate from percent inhibition): in the picomolar range
- inhibits thrombin ([3]; inhibitor 5 nM): 99%
- Percent Activity ([3]; inhibitor 5 nM): 1%
- Percent Activity ([4]; inhibitor 10 nM): 56%
